Assay in all cases: NCI-60 cell line screen, 48 h
Assay [1] relates to CCRF-CEM leukemia.
Assay [2] concerns HT29 colon.
Assay [3] has as its system MDA-MB-435.
The subject of assay [4] is OVCAR-3 ovarian.
The test system of assay [5] is RXF 393 renal.
For assay [6], the system named is SF-295 CNS.
Assay [7] relates to SK-MEL-2 melanoma.
Assay [8] deals with U251 CNS.

The structures appear in SMILES notation. Several values for one entry are separate records, joined by “and”; a condition that tells them apart may be missing. Equal values may be shown once.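 Assay format: 96-well plates, 48-hour exposure. GI50 = concentration required for 50% inhibition of growth. TGI marks complete inhibition of growth.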

Regarding `CCCCNC(=O)Oc1ccc(/C(=C(\C)c2ccc(OC)cc2)c2ccc(OCCN3CCCCC3)cc2)cc1`, the GI50 was 2.81 µM in assay [1]; 0.873 µM in assay [2]; 1.78 µM in assay [3]; 2.09 µM in assay [4]; 2.09 µM in assay [5]; 2.27 µM in assay [6]. Further, the GI50 in assay [7] was 4.65 µM; in assay [8] it was 2.49 µM. For the same molecule, the TGI in assay [1] stood at 9.78 µM; in assay [2], 6.77 µM; in assay [3], 3.67 µM; in assay [4], 4.51 µM; in assay [5], 4.3 µM; in assay [6], 5.47 µM. In addition, the TGI amounted to 17.4 µM in assay [7] and 5.99 µM in assay [8].
On to `O=c1oc2ccc(F)cc2c(=O)n1-c1ccc(I)cc1F`, for which the GI50 in assay [1] was 1.83 µM; in assay [2], 3.29 µM; in assay [3], 0.419 µM; in assay [4], 0.37 µM; in assay [5], 0.543 µM; in assay [6], 1.86 µM. The GI50 in assay [7] is 0.344 µM; in assay [8], 0.469 µM. Further, the TGI is 52 µM in assay [1]; above 33 µM in assay [2]; 3.94 µM in assay [3]; 6.36 µM in assay [4]; 3.3 µM in assay [5]; 3.68 µM in assay [6]. In addition, the TGI in assay [7] was 1.9 µM; in assay [8], above 100 µM.
Turning to `NC(=O)c1ccc(I)c([N+](=O)[O-])c1`, the GI50 was above 63.7 µM in assay [1]; 58 µM in assay [2]; above 75.6 µM in assay [3]; 55 µM in assay [4]; above 84.8 µM in assay [5]; above 92.7 µM in assay [6]. Moreover, the GI50 in assay [7] is above 100 µM; in assay [8], 45.3 µM. For the same molecule, the TGI in assay [1], in assay [2], in assay [3], in assay [4], in assay [5] and in assay [6] was above 100 µM each time. The TGI in assay [7] and in assay [8] was above 100 µM throughout.
With `CC(C)(C)c1cc[n+](C[n+]2ccc(C(C)(C)C)cc2)cc1`, the TGI in assay [1], in assay [2], in assay [3], in assay [4], in assay [5] and in assay [6] was above 100 µM throughout. The TGI in assay [7] and in assay [8] was above 100 µM throughout.
`Cc1ccc(S(=O)(=O)NC(Cc2ccccc2)C(=O)CCl)cc1` (configuration not stated): the TGI in assay [1] is above 100 µM; in assay [2], 28.5 µM; in assay [3], 30.3 µM; in assay [4], 29.2 µM; in assay [5], 6.33 µM; in assay [6], 36.6 µM. The TGI in assay [7] stood at 26 µM; in assay [8], 29.7 µM.
`CC1(C)N=C(N)N=C(N)N1c1cccc(CCCCc2ccc(Cl)c(S(=O)(=O)F)c2)c1`: the GI50 was 0.764 µM in assay [1]; 0.441 µM in assay [2]; 0.445 µM in assay [3]; 5.58 µM in assay [4]; 0.459 µM in assay [5]; 2.56 µM in assay [6]. In addition, the values for the GI50 in assay [7] and in assay [8] were 8.53 µM and 0.655 µM, respectively. In addition, the TGI in assay [1] came to 17.6 µM; in assay [2] it was 16.3 µM; in assay [3] it was 15.7 µM; in assay [4], 18.5 µM; in assay [5], 16.1 µM; in assay [6], 13.4 µM. Further, the figures for the TGI in assay [7] and in assay [8] were 25.4 µM and 21.3 µM, respectively.
For `C[C@]1(c2nc3c(C(N)=O)cccc3[nH]2)CCCN1`, the GI50 in assay [1] is above 100 µM; in assay [2], 61.5 µM and > 100 µM; in assay [3], above 100 µM; in assay [4] it was 53.6 µM and > 100 µM; in assay [5] it was above 90.3 µM; in assay [6], 56.1 µM and > 58.3 µM. Further, the GI50 in assay [7] is 79.4 µM and > 100 µM; in assay [8], 75.9 µM and > 100 µM. Also, the TGI in assay [1], in assay [2], in assay [3], in assay [4], in assay [5] and in assay [6] was above 100 µM throughout. Besides, the TGI in assay [7] and in assay [8] was above 100 µM each time.
Turning to `CCCCCCCC(=O)Nc1nc2[nH]c(CN3CCN(Cc4cccc(I)c4)CC3)c(CN3CCN(Cc4cccc(I)c4)CC3)c2c(=O)[nH]1`, the GI50 in assay [1] is 1.25 µM; in assay [2], 0.998 µM; in assay [3], 0.823 µM; in assay [4] it was 0.879 µM; in assay [5] it was 0.78 µM; in assay [6], 0.843 µM. The results for the GI50 in assay [7] and in assay [8] were 0.97 µM and 0.923 µM, respectively. For the same molecule, the TGI in assay [1] is 3.22 µM; in assay [2], 2.13 µM; in assay [3], 1.55 µM; in assay [4], 1.62 µM; in assay [5], 1.49 µM; in assay [6], 1.55 µM. Further, the TGI was determined as 2.05 µM in assay [7] and 1.8 µM in assay [8].
For `O=c1cccccc1O`, the TGI in assay [1] is 82.5 µM; in assay [2], above 100 µM; in assay [3], above 100 µM; in assay [4], above 100 µM; in assay [5], above 100 µM; in assay [6], above 100 µM. For the same molecule, the TGI in assay [7] was above 100 µM.
Turning to `CCCCCCCCCCCCCCCCCC1=NC(C)(C)CN1C(C)(C)CO`, the GI50 in assay [1] is 1.39 µM; in assay [2], 1.44 µM; in assay [3], 1.58 µM; in assay [4], 1.5 µM; in assay [5], 1.11 µM; in assay [7], 1.83 µM. Besides, in assay [8], the GI50 was 1.42 µM. Further, the TGI turned out to be 4.88 µM in assay [1]; 3.44 µM in assay [2]; 3.42 µM in assay [3]; 2.96 µM in assay [4]; 2.36 µM in assay [5]; 3.51 µM in assay [7]. Moreover, the TGI in assay [8] is 3.03 µM.
Turning to `C=C(C)[C@@H]1C/C=C(/COC(C)=O)CC[C@H]2O[C@@]2(C)CC/C=C(\C)CC1`, the GI50 in assay [1] was 26.9 µM; in assay [3], above 100 µM; in assay [4], above 100 µM; in assay [5] it was 33.6 µM; in assay [6], above 100 µM; in assay [7], above 100 µM. Besides, in assay [8], the GI50 is above 100 µM. The TGI was 54.8 µM in assay [1]; above 100 µM in assay [3]; above 100 µM in assay [4]; above 100 µM in assay [5]; above 100 µM in assay [6]; above 100 µM in assay [7]. In addition, in assay [8], the TGI was above 100 µM.
